Results reported in patent US7655665B2, “Nitromethylene derivatives and their use” (East China University of Science and Technology, priority 2004, dated 2010).

Legend:
Aphis craccivoral = experiment: Insecticidal activity against Aphis craccivoral by immersing (dipping aphids on bean sprout); assay type: in vivo; conditions: 23° C.
How it was run: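 Wingless adult A. craccivora feeding on bean sprouts dipped 5 seconds in compound at 500 ug/mL (0.2 mL/L Triton X-100 aqueous), then held at 23 °C. Mortality counted after 24 hours, three replicates, vehicle-only control.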

Nilaparvata lugens = experiment: Insecticidal activity against Nilaparvata lugens (planthopper) by spraying; assay type: in vivo; conditions: 500 ppm; for mortality (%) (500 ppm) Nilaparvata lugens: spraying 2 ml, counted after 24 hours; for mortality (%) (500 ppm) Nilaparvata-lugens: spraying 2 ml per tumbler, killed counted after 24 hours
How it was run: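 Ten planthoppers per tumbler were introduced 6 hours before spraying with 2 ml of test solution, with clean water as blank control. Each treatment had 3 replicates, and three series were run. Mortality was counted after 24 hours.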

[1] = 500 ppm, immersing (dipped 5 seconds), counted after 24 hours
[2] = 500 ppm (500 ug/mL dilution), dipped 5 seconds, killed aphis counted after 24 hours

Structure (SMILES)	mortality (%) (500 ppm) Aphis (Aphis craccivoral; [1])	mortality (%) (500 ppm) Nilaparvata lugens (Nilaparvata lugens)	mortality (%) (500 ppm) Aphis (Aphis craccivoral; [2])	mortality (%) (500 ppm) Nilaparvata-lugens (Nilaparvata lugens)
O=C(OC1CCC([N+](=O)[O-])=C2N(Cc3ccc(Cl)nc3)CCN21)c1cc(F)c(F)c(F)c1F (centres unmarked) [Compound 128]	0%	21%		
CS(=O)(=O)OC1CCC([N+](=O)[O-])=C2N(Cc3ccc(Cl)nc3)CCN21 (centres unmarked) [Compound 117]	19%	65%		
CN=C1CCC([N+](=O)[O-])=C2N(Cc3cnc(Cl)s3)CCN12 [Compound 213]			32%	78%
O=C(OC1CCC([N+](=O)[O-])=C2N(Cc3cnc(Cl)s3)CCN21)c1cc(F)c(Cl)cc1Cl (centres unmarked) [Compound 164]	59%	78%		
CN=C1CCC([N+](=O)[O-])=C2N(Cc3cnc(Cl)s3)CCCN12 [Compound 221]			4%	67%
CC(C)(C)SC1CCC([N+](=O)[O-])=C2N(Cc3cnc(Cl)s3)CCN21 (centres unmarked) [Compound 181]			45%	78%
CCN=C1CCC([N+](=O)[O-])=C2N(Cc3cnc(Cl)s3)CCCN12 [Compound 222]			4%	89%
CSC1CCC([N+](=O)[O-])=C2N(Cc3cnc(Cl)s3)CCN21 (centres unmarked) [Compound 171]			97%	100%
O=C(OC1CCC([N+](=O)[O-])=C2N(Cc3ccc(Cl)nc3)CCN21)c1ccc(F)cc1 (centres unmarked) [Compound 123]	56%	100%		
COCCOC1CCC([N+](=O)[O-])=C2N(Cc3ccc(Cl)nc3)CCN21 (racemic) [Compound 21]	100%	100%		
CCOCCOC1CCC([N+](=O)[O-])=C2N(Cc3ccc(Cl)nc3)CCN21 (racemic) [Compound 22]	100%	100%		
CC(C)N=C1CCC([N+](=O)[O-])=C2N(Cc3cnc(Cl)s3)CCCN12 [Compound 227]			100%	100%
CCCCSC1CCC([N+](=O)[O-])=C2N(Cc3cnc(Cl)s3)CCN21 (centres unmarked) [Compound 178]			23%	12%
CC(C)(C)CN=C1CCC([N+](=O)[O-])=C2N(Cc3ccc(Cl)nc3)CCN12 [Compound 198]			39%	89%
O=[N+]([O-])C1=C2N(Cc3cnc(Cl)s3)CCN2C(OCC(F)(F)F)CC1 (racemic) [Compound 27]	100%	100%		
O=C(OC1CCC([N+](=O)[O-])=C2N(Cc3cnc(Cl)s3)CCN21)c1ccccc1 (centres unmarked) [Compound 161]	3%	5%		
